{"source": "patent US20120083473A1", "about": "“TREATMENT OF CONDITIONS BY TOLL-LIKE RECEPTOR MODULATORS” (priority 2010, published 2012)", "type_in_all_cases": "cell-based, mice", "key": {"[1]": {"system": "Peritoneal macrophages (PEC)", "experiment": "Tolerance and M1/M2 gene expression in murine peritoneal macrophages (Real-Time PCR)", "procedure": "Peritoneal macrophages (PEC) isolated from C57 black mice are used to test the tolerogenic effects of compound 2 of Table 2. The effects of this TLR7 ligand are analyzed in terms of gene expression (Real-Time PCR) of both pro-inflammatory (e.g. TNF-alpha, IL-1, IL-6) and anti-inflammatory (e.g. IL-10, TGF-beta) cytokines. Further, additional markers of M1 (e.g. iNOS, IL-12, IFN-beta, CXCL9, CXCL10) versus M2 (e.g. arginase I, Ym1, Fizz1, CCL17, CCL22, dectin 1, MGL) macrophage polarization is determined, in order to evaluate the polarizing activities of this compound. This analysis is instrumental to the understanding of mechanisms driving the tolerogenic action of compound 2 of Table 2, as an M2 polarized response is considered to be an alternative anti-inflammatory and “tolerogenic” macrophage program.\nWith respect to macrophage tolerance, cells are treated with two doses of compound 2 of Table 2 (1 microM and 10 microM) up to 20 hours and then re-challenged with agonists/ligands of different TLRs (TLR2, TLR4, TLR5, TLR9, TLR7, etc.), including the TLR7 unconjugated ligand 1V209 (free pharmacophore) at a concentration of 10 microM.\nIn a first run of experiments, the tolerogenic and polarizing ability of compound 2 of Table 2, which also is referred to hereafter as “TMX,” was evaluated. To induce tolerance, PEC were pre-treated for 20 hours with 10 μM or 1 μM TMX. Next, total RNA from control (M/M), TMX activated (M/T), 1V209 (free pharmacophore)-activated (M/I), tolerant (T/M) and tolerant PEC re-challenged with TMX (T/T) or with 1V209 (free pharmacophore) (T/I), were analyzed by RT PCR for the expression of representative M1 and M2 genes. […] However, most of the M1 genes transcripts were still induced (FIG. 1C, D).\n(§1) Cell Culture and treatments. Peritoneal exudate cells (PEC) were harvested from mice injected with 1 ml of 3% (w/v) thioglycollate medium (Difco, Detroit, Mich.) 4 days prior to isolation. PECs were incubated in RPMI 1640 medium, containing 10% fetal bovine serum, 2 mM glutamine and 100 U/ml of penicillin-streptomycin. The concentration for the different treatments were as follows: LPS (100 ng/ml) (Lipopolysaccharide from Salmonella Abortus Equi S-form, Alexis), CpG (1 μg/ml), Pam3CSK (2 μg/ml), Poly I:C (10 μg/ml), Loxorubine (100 μM), flagellin (100 ng/ml) IL-1β (20 ng/ml), TNF (20 ng/ml), IL-10 (20 ng/ml) (Peprotech), IFNγ (200 U/ml) (Peprotech). To induce TMX tolerance, cells were incubated in the presence of TMX (10 μM or 1 μM) for 20 hrs, washed and maintained in RPMI medium for 2 hrs and then re-challenged with TMX (10 μM) for 4 hrs. To induce TMX-tolerization (T/M) cells were treated with TMX for 20 hrs, washed and then maintained in medium for additional 6 hours, without TMX re-challenge. To induce M1-activation, cells were incubated in medium for 20 hrs, washed, left in medium for 2 hrs and finally stimulated with TMX (10 μM) for 4 hrs. Control cells (M/M) were cultured in medium for the entire period of the experiment. For gene expression analysis, total RNA was extracted from TMX treated and untreated cells with trizol (Invitrogen), according to the manufacturer's instructions. To analyze cytokines and chemokines production supernatants were collected 24 hrs after the second challenge with TMX.\n(§2) Real-Time PCR. Total RNA was purified as previously described. Briefly, reverse transcription from 1 μg of RNA was performed using cDNA Archive kit (Applied Biosystem, NJ, USA). Real time PCR was performed using Power Syber Green PCR Master Mix (Applied Biosystem, NJ, USA) and detected by 7900HT Fast Real-Time System (Applied Biosystem, NJ, USA). Data were processed using the SDS2.2.2 software (Applied Biosystem, NJ, USA). Results were normalized to the expression of the housekeeping gene β-actin and then expressed as folds of upregulation, with respect to the control cell population."}, "[2]": {"system": "murine peritoneal macrophages (PEC)", "experiment": "Cross-tolerance toward TLR ligands and pro-inflammatory cytokines in PEC (gene expression)", "procedure": "In addition, tolerance is tested also in response to primary cytokines IL-1-beta and TNFalpha. This approach clarifies whether the TLR7 partial agonist compound 2 of Table 2 promotes cross-tolerance of different members of the TLR family, as well as of the IL-1 and TNF receptor systems, which has been regularly reported.\nA second group of experiments was performed to evaluate the capacity of TMX to promote cross tolerance toward several TLR ligands and pro-inflammatory cytokines. PECs maintained in medium or pre-treated for 20 hours with 10 μM or 1 μM of TMX and re-challenged with several TLR agonists or pro-inflammatory cytokines were analyzed for the expression of selected M1 and M2 genes.\nas §1\nReal-Time PCR. Total RNA was purified as previously described. Briefly, reverse transcription from 1 μg of RNA was performed using cDNA Archive kit (Applied Biosystem, NJ, USA). Real time PCR was performed using Power Syber Green PCR Master Mix (Applied Biosystem, NJ, USA) and detected by 7900HT Fast Real-Time System (Applied Biosystem, NJ, USA). […] Results were normalized to the expression of the housekeeping gene β-actin and then expressed as folds of upregulation, with respect to the control cell population."}, "[3]": {"system": "murine peritoneal macrophages (PEC)", "experiment": "Dose-response of M1 and M2 gene expression in PEC (RT PCR)", "procedure": "A third group of experiments was performed to investigate the dose-response effects of TMX, its potency as compared to classical inflammatory signals (e.g. LPS) and the activation of selected transcription factors playing an established role in tolerance, as well as in the induction of M1/M2 polarized inflammatory programs. PECs treated for 4 hours or 20 hours with 100 ng/mlof LPS or increased concentrations of TMX or 1V209 were analyzed by RT PCR for the expression of representative M1 (TNFα, IL-12p40) and M2 (IL-10, TGFβ) genes. […] In this experiment, as compared to 1V209, TMX is a lower inducer of M1 genes expression.\nas §1, §2"}, "[4]": {"conditions": "PEC pre-treated 20 hours with 10 μM TMX, RT PCR"}}, "data": [{"molecule": "COCCOc1nc(N)c2nc(O)n(Cc3ccc(C(=O)NCCOCCOCCOCCOCCOCCOCCn4cc(CCC(=O)O)nn4)cc3)c2n1", "note": "[Compound 2]", "values": [{"measurement": "M2 gene expression", "setting": "[1]; 1 μM TMX pre-treatment, except for IL-10", "value": "did not enhance"}, {"measurement": "M1 (TNF-alpha, IL-12, IFN-beta, CXCL10) gene expression in state of tolerance", "setting": "[1]; [4]", "value": "low"}, {"measurement": "selected M2 genes (IL-10, TGFβ, Arg I, CCL17, CCL22) in state of tolerance", "setting": "[1]; [4]", "value": "high levels"}, {"measurement": "M2 markers Ym1, Fizz1, MGL2 gene transcripts", "setting": "[1]; PEC, TMX", "value": "No significant modulation"}, {"measurement": "induction of tolerance", "setting": "[1]; pre-treatment with 1 μM TMX, except for IL-12p40", "value": "unable to induce tolerance"}, {"measurement": "macrophage activation", "setting": "[1]; prolonged exposure of PEC to high concentration of TMX", "value": "M2 skewed activation"}, {"measurement": "M2 genes expression on re-challenge with different TLR agonists", "setting": "[2]; PECs pre-treated with TMX", "value": "triggered the expression of M2 genes"}, {"measurement": "M1 genes expression in response to TLR ligands", "setting": "[2]; PECs tolerized by 20 hours pre-treatment with 10 μM TMX", "value": "inability to up-regulate M1 genes expression"}, {"measurement": "cross-tolerance", "setting": "[2]; TMX 10 microM, exception CXCL10 following re-challenge with CpG, poly I:C, LPS", "value": "observed"}, {"measurement": "IL-10 expression following re-challenge of TMX-tolerant macrophages with TNF", "setting": "[2]; TNF 20 ng/ml", "value": "still induced"}, {"measurement": "most potent dose tested for the induction of both M1 and M2 genes", "setting": "[3]; PEC", "value": 30, "unit": "µM"}, {"measurement": "induction of both M1 and M2 gene expression", "setting": "[3]; PECs treated 4 hours or 20 hours with increased concentrations", "value": "dose-dependent induction"}, {"measurement": "induction of M1 genes expression as compared to 1V209", "setting": "[3]; PECs, 4 or 20 hours", "value": "lower inducer"}]}]}
